Source: patent publication US20080182904A1, “Baclofen for Relapse Protection in Addiction” (priority 2007, published 2008)

Experiments:
[1] = Alcohol-challenge test for relapse in a patient treated with baclofen for alcohol dependence; type: in vivo, human
Experimental: For alcoholism, vulnerability is tested with an alcohol-challenge test of about three to five standard drinks. The number of drinks can and should be varied (typically lower) if any adverse signs or cravings appear in the patient. […] If craving occurs, the patient is not protected against relapse and the SSD dosage needs to be increased and the test performed again until craving stops occurring altogether upon renewed alcohol-challenge (s). Once that state is achieved, the patient is protected against relapse.
The susceptibility of a patient to relapse while being treated for alcohol dependence using baclofen was determined. The patient (themself a physician) had been symptom-free for more than one year and was on a baclofen dose of 120 mg/day (40 mg, three times per day).
First challenge: During a social gathering, the patient had 3 standard drinks of alcohol (gin and tonic) over a few hours and evaluated the effects in the presence of a physician witness. The first drink was consumed slowly by sipping over some 40 minutes, without the slightest urge to drink it rapidly (and which had previously been the only way the patient would drink, e.g., typically consuming the drink within 5 minutes). A second drink was ordered, consumed and started to produce a pleasant mild euphoria. A third drink was begun but the patient was not able to finish it, something that would have been impossible during untreated alcohol dependence. At the time, the patient felt no desire to finish the third drink, felt a bit high and maintained the ability to chat. After a night's sleep, the patient woke up without any feelings of remorse or fear. […] The following hours were unremarkable. No alcohol thoughts or dreams occurred in the following weeks.
Second challenge: The patient repeated the experiment approximately one month later with an even stronger challenge: five drinks. Again in the presence of another physician, the patient succeeded in having 5 drinks of vodka and tonic over 6 hours. […] Accordingly the daily dosage of baclofen was increased from 40 mg three times daily, to 60 mg three times daily (180 mg/day). […] Accordingly, symptom suppression is dose-dependent and may require higher dosage when challenge is important.
Third challenge: To test if a higher than routine dose of baclofen can prevent cravings, even in the presence of a massive amount of alcohol such as is ingested during heavy drinking or during active relapse, the patient's baclofen dose was […] 24 hours prior to consuming an alcoholic beverage. The patient took 30 mg baclofen in the morning, a second such dose 8 hours later and a few hours later (in the evening) took dose of 80 mg baclofen at the same time as beginning to drink large amounts of alcohol as could reasonably tolerated, expecting that to be about a fifth of Scotch. The alcohol was consumed over several hours and the next day, actual consumption was measured to be four fifths of the bottle. […] The patient is able to have an occasional drink in a non-dependent fashion.

[2] = cited from earlier work
[3] = cited from earlier work; remark: listed apart in the source

SMILES: NCC(CC(=O)O)c1ccc(Cl)cc1 (centres unmarked) [baclofen]
- craving after third challenge ([1]; 30 mg + 30 mg + 80 mg on the day, four fifths of a bottle of Scotch over several hours, next day): no craving and no desire whatsoever to drink liquor
- craving and symptoms before challenge ([1]; 120 mg/day (40 mg three times per day), symptom-free for more than one year): completely suppressed craving and symptoms
- craving during follow-up after third challenge ([1]; 180 mg/day for six days, then maintenance dose of 120 mg/day): has not experienced any craving for more than one year
- craving after first challenge ([1]; 3 standard drinks (gin and tonic) over a few hours, 120 mg/day, after a night's sleep): no desire or thought to drink whatsoever
- craving after second challenge ([1]; 5 drinks of vodka and tonic over 6 hours, 120 mg/day, next day in the afternoon): a bout of craving was experienced
- craving on the increased regimen ([1]; second challenge, 60 mg three times daily (180 mg/day)): craving was again completely suppressed
- effect of an additional dose on the bout of craving ([1]; second challenge, administration of 40 mg, craving reappeared several hours later): suppressed the craving within the hour
- craving after dose reduction ([1]; second challenge, after six days at 180 mg/day progressively reduced to 120 mg/day): cravings did not reoccur
- dosage sufficient for craving not to reappear ([2]; after progressive reduction from SSD, over the complete nine months of the published study): 120 mg/day
- coexistent (comorbid preexisting) anxiety ([2]; at SSD): greatly attenuated
- side effect ([2]; at SSD, reduced by lowering the dosage to 120 mg/day): somnolence
- dose needed for craving to completely and permanently disappear (symptom-suppressing dose, SSD) ([2]; oral, gradual dose-escalation, one patient): 270 mg/day
- complete and prolonged suppression of symptoms and consequences of AD ([3]; seven individual patients (Geneva) and one hundred patients (Vienna)): successfully reproduced
- relapse ([3]; some patients treated in Switzerland, even at high-dose baclofen): did relapse
